Drawing on US8178535B2, “Substituted sulfonamide compounds having bradykinin 1 receptor activity and use thereof as medicaments” (Gruenenthal GmbH, priority 2008, dated 2012), this text covers inhibition for 15 compounds.

The target in test [1] is T1, human B1R receptor (hB1R) (Homo sapiens, UniProt P46663).
T1 construct: host or cells: CHO K1 cells
T1 sequence (P46663 1-353): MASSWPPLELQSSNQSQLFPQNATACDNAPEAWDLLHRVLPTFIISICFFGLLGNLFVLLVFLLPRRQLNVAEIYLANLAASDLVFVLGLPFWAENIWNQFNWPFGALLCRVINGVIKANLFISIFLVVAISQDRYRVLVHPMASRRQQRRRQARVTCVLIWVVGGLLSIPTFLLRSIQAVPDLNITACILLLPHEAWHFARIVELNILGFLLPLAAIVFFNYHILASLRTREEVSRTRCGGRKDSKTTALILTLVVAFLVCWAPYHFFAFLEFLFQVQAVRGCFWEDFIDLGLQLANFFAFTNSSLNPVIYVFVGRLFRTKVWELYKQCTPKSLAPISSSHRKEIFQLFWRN
The test is described as follows: FLIPR Ca2+ assay (Fluo-4) on CHO K1 cells stably transfected with the human B1R gene. Conditions: CHO-K1; test substance 10 μM; agonist Lys-Des-Arg9-bradykinin 0.5 nM; % inhibition compared to the maximum achievable inhibition. In kind it is cell-based. As for the experimental part: (§1) The agonistic or antagonistic action of compounds can be quantified on the bradykinin 1 receptor (B1R) of humans and rats with ectopically expressing cell lines (CHO K1 cells) and with the aid of a Ca^2+-sensitive dye (Fluo-4) in the fluorescent imaging plate reader (FLIPR). The figure in percent activation refers to the Ca^2+ signal after addition of Lys-Des-Arg^9-bradykinin (0.5 nM) and Des-Arg^9-bradykinin (100 nM). Antagonists result in a suppression of the Ca^2+ inflow after the addition of the agonist. Percent inhibition values are given in comparison to the maximum achievable inhibition. The compounds according to the invention act, for example, on the B1R which is implicated in various disease states. This means that the compounds of the invention are useful as pharmaceutically active substances in medicaments for the treatment and/or inhibition of such disease states.
(§2) The agonistic or antagonistic action of substances can be determined on the bradykinin 1 receptor (B1R) of humans and rats by means of the following assay. According to this assay the Ca^2+ inflow through the channel is quantified by means of a Ca^2+-sensitive dye (Fluo-4 type, Molecular Probes Europe BV, Leiden, Netherlands), in a Fluorescent Imaging Plate Reader (FLIPR, Molecular Devices, Sunnyvale, USA).
(§3) Chinese hamster ovary cells (CHO K1 cells) are used, which are stably transfected with the human B1R gene (hB1R cells, Euroscreen s.a., Gosselies, Belgium), or with the B1R gene of rats (rB1R cells, Axxam, Milan, Italy). For functional investigations these cells are plated out on black 96-well plates with a clear floor (BD Biosciences, Heidelberg, Germany) in a density of 20,000/25,000 cells/well. The cells are incubated overnight with 10 vol. % FBS (foetal bovine serum, Gibco Invitrogen GmbH, Karlsruhe, Germany) at 37° C. and 5% CO2 in a culture medium (hB1R cells: Nutrient Mixture Ham's F12, Gibco Invitrogen GmbH, Karlsruhe, Germany; rB1R cells: D-MEM/F12, Gibco Invitrogen GmbH, Karlsruhe, Germany). The following day the cells are charged for 60 minutes at 37° C. with 2.13 μM Fluo-4 (Molecular Probes Europe BV, Leiden, Netherlands) in HBSS buffer (Hank's buffered saline solution, Gibco Invitrogen GmbH, Karlsruhe, Germany) together with […] (Sigma-Aldrich, Taufkirchen, Germany) and 10 mM HEPES (Sigma-Aldrich, Taufkirchen, Germany).
(§4) The plates are then washed twice with HBSS buffer and HBSS buffer is added which additionally contains 0.1% BSA (bovine serum albumin; Sigma-Aldrich, Taufkirchen, Germany), 5.6 mM glucose and 0.05% gelatin (Merck KGaA, Darmstadt, Germany). After further incubation for 20 minutes at room temperature the plates are used for the Ca^2+ measurement in the FLIPR. The Ca^2+-dependent fluorescence is measured both before and after the addition of substances (λex=488 nm, λem=540 nm). The quantification is carried out by measuring the highest fluorescence intensity (FC, fluorescence counts) over time.
(§5) The FLIPR protocol consists of two substance additions. First, test substances (10 μM) are pipetted onto the cells and the Ca^2+ inflow is compared with the control (hB1R: Lys-Des-Arg9-bradykinin 0.5 nM; rB1R: Des-Arg9-bradykinin 100 nM). This gives the result in percent activation referred to the Ca^2+ signal after addition of Lys-Des-Arg9-bradykinin (0.5 nM), bzw. Des-Arg9-bradykinin (100 nM). After 10 minutes' incubation 0.5 nM Lys-Des-Arg9-bradykinin (hB1R) and 100 nM Des-Arg^9-bradykinin (rB1R) are applied and the inflow of Ca^2+ is likewise determined. Antagonists lead to a suppression of the Ca^2+ inflow. The percent inhibition compared to the maximum achievable inhibition is calculated. The compounds show a good activity on both human and rat receptors.
(§6) The agonistic and antagonistic action of the compounds according to the invention on the bradykinin 1 receptor (B1R) of humans and rats were determined as described above. Antagonists lead to a suppression of the Ca^2+ inflow. […]

Test [2] concerns the target T2, B1R receptor of rats (rB1R) (Rattus norvegicus, UniProt P97583).
T2 construct: host or cells: CHO K1 cells
T2 sequence (P97583 1-337): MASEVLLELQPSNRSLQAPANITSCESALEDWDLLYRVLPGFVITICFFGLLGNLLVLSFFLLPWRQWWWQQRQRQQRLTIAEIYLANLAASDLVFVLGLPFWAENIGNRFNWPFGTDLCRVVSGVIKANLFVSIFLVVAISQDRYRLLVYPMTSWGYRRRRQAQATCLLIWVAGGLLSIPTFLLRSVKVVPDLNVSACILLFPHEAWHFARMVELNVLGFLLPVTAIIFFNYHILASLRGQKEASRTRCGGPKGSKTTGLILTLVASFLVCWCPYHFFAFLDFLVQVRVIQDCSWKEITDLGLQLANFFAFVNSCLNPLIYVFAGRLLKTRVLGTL
The test is described as follows: FLIPR Ca2+ assay (Fluo-4) on CHO K1 cells stably transfected with the B1R gene of rats. Particulars: CHO-K1; test substance 10 μM; agonist Des-Arg9-bradykinin 100 nM; % inhibition compared to the maximum achievable inhibition. In kind it is cell-based. As for the experimental part:
as §1, §2, §3, §4, §5, §6

As usually defined, the inhibition is the drop in the measured response relative to a control, in per cent. On to `COc1cc(C)c(S(=O)(=O)N2CCCCC2COCC(=O)N2CCn3cc(CCc4ccncc4)nc3C2)c(C)c1` (stereo not drawn) [(115), 2-((1-(4-Methoxy-2,6-dimethylphenylsulfonyl)piperidin-2-yl)methoxy)-1-(2-(2-(pyridin-4-yl)ethyl)-5,6-dihydroimidazo[1,2-a]pyrazin-7(8H)-yl)ethanone], for which the inhibition at 10 µM in test [1] amounted to 100%; in test [2] it was 98%.
The like results for `Cc1cc(S(=O)(=O)N2CCCCC2CCC(=O)N2CCn3c(CN4CCN(C)CC4)ccc3C2)c(C)cc1Cl` (stereo not drawn) [(5), 3-(1-(4-chloro-2,5-dimethylphenylsulfonyl)piperidin-2-yl)-1-(6-((4-methyl-piperazin-1-yl)methyl)-3,4-dihydropyrrolo[1,2-a]pyrazin-2(1H)-yl)propan-1-one] were, in that order, 100% and 51%.
The like results for `Cc1cc(C)c(S(=O)(=O)N2CCCCC2COCC(=O)N2CCn3cccc3C2C(C)C)c(C)c1` (stereo not drawn) [(57), 1-(1-isopropyl-3,4-dihydropyrrolo[1,2-a]pyrazin-2(1H)-yl)-2-((1-(mesitylsulfonyl)piperidin-2-yl)methoxy)ethanone] were, in that order, 102% and 103%.
The like results for `COc1cc(C)c(S(=O)(=O)N2CCCCC2COCC(=O)N2CCn3c(CN4CCCC4)ccc3C2)c(C)c1` (stereo not drawn) [(13), 2-((1-(4-methoxy-2,6-dimethylphenylsulfonyl)piperidin-2-yl)methoxy)-1-(6-(pyrrolidin-1-ylmethyl)-3,4-dihydropyrrolo[1,2-a]pyrazin-2(1H)-yl)ethanone] were, in that order, 102% and 102%.
In the case of `CCCC1c2cccn2CCN1C(=O)COCC1CCCCN1S(=O)(=O)c1c(C)cc(C)cc1C` (stereo not drawn) [(56), 2-((1-(mesitylsulfonyl)piperidin-2-yl)methoxy)-1-(1-propyl-3,4-dihydropyrrolo[1,2-a]pyrazin-2(1H)-yl)ethanone], the inhibition at 10 µM came to 95% in test [1] and 102% in test [2].
The like results for `COc1cc(C)c(S(=O)(=O)N2CCCCC2COCC(=O)N2CCn3c(ccc3-c3ccncc3)C2)c(C)c1` (stereo not drawn) [(95), 2-((1-(4-Methoxy-2,6-dimethylphenylsulfonyl)piperidin-2-yl)methoxy)-1-(6-(pyridin-4-yl)-3,4-dihydropyrrolo[1,2-a]pyrazin-2(1H)-yl)ethanone] were, in that order, 99% and 97%.
Take `O=C(CC1CCCCN1S(=O)(=O)c1cccc(C(F)(F)F)c1)N1CCn2c(Cc3ccncc3)ccc2C1` (stereo not drawn) [(90), 1-(6-(Pyridin-4-ylmethyl)-3,4-dihydropyrrolo[1,2-a]pyrazin-2(1H)-yl)-2-(1-(3-(trifluoromethyl)phenylsulfonyl)piperidin-2-yl)ethanone]: the values for the inhibition at 10 µM in test [1] and in test [2] were 25% and 47%, respectively.
The like results for `COc1cc(C)c(S(=O)(=O)N2CCCCC2CCC(=O)N2CCn3c(CCc4cccnc4)ccc3C2)c(C)c1` (stereo not drawn) [(102), 3-(1-(4-Methoxy-2,6-dimethylphenylsulfonyl)piperidin-2-yl)-1-(6-(2-(pyridin-3-yl)ethyl)-3,4-dihydropyrrolo[1,2-a]pyrazin-2(1H)-yl)propan-1-one] were, in that order, 86% and 101%.
The like results for `COc1cc(C)c(S(=O)(=O)N2CCCCC2CCC(=O)N2CCn3c(Cc4ccncc4)ccc3C2)c(C)c1` (stereo not drawn) [(99), 3-(1-(4-Methoxy-2,6-dimethylphenylsulfonyl)piperidin-2-yl)-1-(6-(pyridin-4-ylmethyl)-3,4-dihydropyrrolo[1,2-a]pyrazin-2(1H)-yl)propan-1-one] were, in that order, 72% and 102%.
As for `Cc1cc(C)c(S(=O)(=O)N2CCCCC2COCC(=O)N2CCn3cccc3C2c2ccc(Cl)nc2)c(C)c1` (stereo not drawn) [(36), 1-(1-(6-chloropyridin-3-yl)-3,4-dihydropyrrolo[1,2-a]pyrazin-2(1H)-yl)-2-((1-(mesitylsulfonyl)piperidin-2-yl)methoxy)ethanone], the inhibition at 10 µM in test [1] and in test [2] was 99% in each case.
For `COc1cc(C)c(S(=O)(=O)N2CCCCC2CCCC(=O)N2CCn3cc(-c4ccncc4)nc3C2)c(C)c1` (stereo not drawn) [(100), 4-(1-(4-Methoxy-2,6-dimethylphenylsulfonyl)piperidin-2-yl)-1-(2-(pyridin-4-yl)-5,6-dihydroimidazo[1,2-a]pyrazin-7(8H)-yl)butan-1-one], the figures for the inhibition at 10 µM in test [1] and in test [2] were 85% and 101%, respectively.
Take `COc1cc(C)c(S(=O)(=O)N2CCCCC2COCC(=O)N2CCn3cccc3C2c2ccc(F)c(F)c2)c(C)c1` (stereo not drawn) [(26), 1-(1-(3,4-difluorophenyl)-3,4-dihydropyrrolo[1,2-a]pyrazin-2(1H)-yl)-2-((1-(4-methoxy-2,6-dimethylphenylsulfonyl)piperidin-2-yl)methoxy)ethanone]: the inhibition at 10 µM in test [1] was 86%; in test [2], 98%.
The like results for `COc1cc(C)c(S(=O)(=O)N2CCCCC2COCC(=O)N2CCn3cccc3C2C)c(C)c1` (stereo not drawn) [(20), 2-((1-(4-methoxy-2,6-dimethylphenylsulfonyl)piperidin-2-yl)methoxy)-1-(1-methyl-3,4-dihydropyrrolo[1,2-a]pyrazin-2(1H)-yl)ethanone] were, in that order, 101% and 99%.
On to `COc1cc(C)c(S(=O)(=O)N2CCCCC2COCC(=O)N2CCn3c(Cc4ccncc4)ccc3C2)c(C)c1` (stereo not drawn) [(88), 2-((1-(4-Methoxy-2,6-dimethylphenylsulfonyl)piperidin-2-yl)methoxy)-1-(6-(pyridin-4-ylmethyl)-3,4-dihydropyrrolo[1,2-a]pyrazin-2(1H)-yl)ethanone], for which the inhibition at 10 µM in test [1] was 99%; in test [2], 100%.
The like results for `COc1cc(C)c(S(=O)(=O)N2CCCCC2CCC(=O)N2CCn3c(ccc3-c3ccncc3)C2)c(C)c1` (stereo not drawn) [(96), 3-(1-(4-Methoxy-2,6-dimethylphenylsulfonyl)piperidin-2-yl)-1-(6-(pyridin-4-yl)-3,4-dihydropyrrolo[1,2-a]pyrazin-2(1H)-yl)propan-1-one] were, in that order, 61% and 96%.
